According to patent US5763599A, “Nucleoside derivatives with photolabile protective groups” (Pfleiderer; Wolfgang, priority 1994, dated 1998):

Experiment: Irradiation experiments: photolytic cleavage of the 5' protective group with polychromatic light, followed by HPLC
Format: physicochemical
Conditions: for Photolytic cleavage of the 5' protective group in relation to rapidity and high yields: compared with V1 and V2; for Concentration Thymidine (released): from 0.2 mM CNPEOC-T; for Relative Quantity Thymidine (released): of 0.2 mM; for Concentration CNPEOC-T: start 0.2 mM; for Relative Quantity CNPEOC-T: 200 µM
Method: The corresponding protected thymidine nucleosides were irradiated by means of an irradiation apparatus which was composed of a Hg very high pressure lamp (OSRAM HBO, 200 W), a focusing lens, a shutter with an electronic control device for setting the shutter times and a temperature-controlled cuvette holder. A heat filter (0.032 molar CuSO4 solution) between the lamp and sample was also installed. 0.2 mM solutions of the nucleosides in MeOH/H2 O 1:1 were irradiated at 20° to 30° C. with the entire lamp spectrum (polychromatic light with wavelengths of λ>289 nm).
The cleavage of the protective groups was followed quantitatively by HPLC. The HPLC unit comprised of the following devices: Merck-Hitachi L-6200 Intelligent Pump, Merck-Hitachi Intelligent Auto Sampler AS 4000, Merck-Hitachi Interface, Merck Lichrosorb column RP 18, 125×5 mm. The ultra-violet/VIS spectrophotometer was a Kontron UVIKON 730 LC. Detection took place at 260 nm. The integration of the chromatogram signals took place by means of Merck software: D-6000 HPLC Manager.
MeOH/H2 O mixtures were always used for chromatography. The following gradient was used (flow: 1 ml/min)
Calibration curves for thymidine and the protected nucleosides were compiled by injecting dilution series into the chromatograph.
Samples (loop volume: 20 μl) were taken from the irradiated solutions after specific time intervals. Each sample was injected twice into the chromatograph. The mean values of these dual determinations were used for further evaluation. The peak areas of the chromatograms were converted into the concentrations of protected nucleosides or of thymidine by means of the above-compiled calibration curves. The concentration values obtained in this manner were divided by the maximum achievable concentration of 0.2 mM (=concentration of the protected nucleosides at the start of irradiation) and plotted against the irradiation time as a "relative quantity" in percent.
Linear regression yielded: y=4.96777·10^-4 +3.85757 10^-7 ·x with x=peak area and y=thymidine concentration; r=0.9999
Linear regression yielded: y=9.2999·10^-4 +3.22516 10^-7 ·x with x=peak area and y=CNPEOC-T concentration; r=0.9998.
With regard to several other derivatives according to the invention and to the two comparative compounds V1 (5'-O-(2-nitrobenzyloxycarbonyl)thymidine) and V2 (5'-O-(2.4dinitrobenzyloxycarbonyl)thymidine), the following table summarizes their results obtained according to the above method and evaluated in relation to half-life and yield percentage of deprotected nucleoside derivative, in relation to the maximum concentration achievable): […]

[1] = 0.2 mM in MeOH/H2O 1:1, 20° to 30° C., λ>289 nm

Cc1cn([C@H]2C[C@H](O)[C@@H](COC(=O)OCCc3c(Br)cccc3[N+](=O)[O-])O2)c(=O)[nH]c1=O [Compound 5, 5'-O-(2-(2-bromo-6-nitrophenyl)ethoxycarbonyl)thymidine]
Yield of deprotected nucleoside, in relation to maximum concentration achievable [1]: 89 % Cmax
t0.5 (half-life of photolytic deprotection) (meoh/h2o 1:1, 200 µM): 1.71 min

Cc1cn([C@H]2C[C@H](O)[C@@H](COC(=O)OCc3ccc([N+](=O)[O-])cc3[N+](=O)[O-])O2)c(=O)[nH]c1=O [Compound V2, 5'-O-(2.4dinitrobenzyloxycarbonyl)thymidine, reference compound]
Yield of deprotected nucleoside, in relation to maximum concentration achievable [1]: 38 % Cmax
t0.5 (half-life of photolytic deprotection) [1]: 3.3 min

COc1cc(CCOC(=O)OC[C@H]2O[C@@H](n3cc(C)c(=O)[nH]c3=O)C[C@@H]2O)c([N+](=O)[O-])cc1OC [Compound 9, 5'-O-(2-(4,5-dimethoxy-2-nitrophenyl)ethoxycarbonyl)thymidine]
Yield of deprotected nucleoside, in relation to maximum concentration achievable [1]: 77 % Cmax
t0.5 (half-life of photolytic deprotection) (meoh/h2o 1:1, 200 µM): 7.2 min

Cc1cn([C@H]2C[C@H](O)[C@@H](COC(=O)OCC(C)c3ccccc3[N+](=O)[O-])O2)c(=O)[nH]c1=O (some centres unmarked) [Compound 10, 5'-O-(2-(2-nitrophenyl)propoxycarbonyl)thymidine]
Yield of deprotected nucleoside, in relation to maximum concentration achievable [1]: 89 % Cmax
Photolytic cleavage of the 5' protective group in relation to rapidity and high yields: clearly superior
t0.5 (half-life of photolytic deprotection) (meoh/h2o 1:1, 200 µM): 0.7 min

Cc1cn([C@H]2C[C@H](O)[C@@H](COC(=O)OCc3ccccc3[N+](=O)[O-])O2)c(=O)[nH]c1=O [Compound V1, 5'-O-(2-nitrobenzyloxycarbonyl)thymidine, reference compound]
Yield of deprotected nucleoside, in relation to maximum concentration achievable [1]: 55 % Cmax
t0.5 (half-life of photolytic deprotection) (meoh/h2o 1:1, 200 µM): 2.5 min

Cc1cn([C@H]2C[C@H](O)[C@@H](COC(=O)OCCc3ccccc3[N+](=O)[O-])O2)c(=O)[nH]c1=O [Compound 1, 5'-O-(2-(2-nitrophenyl)ethoxycarbonyl)thymidine]
Yield of deprotected nucleoside, in relation to maximum concentration achievable [1]: 79 % Cmax
t0.5 (half-life of photolytic deprotection) (meoh/h2o 1:1, 200 µM): 2.6 min

Cc1cn([C@H]2C[C@H](O)[C@@H](COC(=O)OCC(Cl)c3ccccc3[N+](=O)[O-])O2)c(=O)[nH]c1=O (some centres unmarked) [Compound 11, 5'-O-(2-chloro-2-(2-nitrophenyl)ethoxycarbonyl)thymidine]
Yield of deprotected nucleoside, in relation to maximum concentration achievable [1]: 97 % Cmax
Photolytic cleavage of the 5' protective group in relation to rapidity and high yields: clearly superior
t0.5 (half-life of photolytic deprotection) (meoh/h2o 1:1, 200 µM): 1.46 min

Cc1cn([C@H]2C[C@H](O)[C@@H](COC(=O)OCCc3c([N+](=O)[O-])cccc3[N+](=O)[O-])O2)c(=O)[nH]c1=O [Compound 2, 5'-O-(2-(2,6-dinitrophenyl)ethoxycarbonyl)thymidine]
Yield of deprotected nucleoside, in relation to maximum concentration achievable [1]: 92 % Cmax
t0.5 (half-life of photolytic deprotection) [1]: 1.37 min

Cc1cn([C@H]2C[C@H](O)[C@@H](COC(=O)OCCc3c(Cl)cccc3[N+](=O)[O-])O2)c(=O)[nH]c1=O [Compound 4, 5'-O-(2-(2-chloro-6-nitrophenyl)ethoxycarbonyl)thymidine]
Yield of deprotected nucleoside, in relation to maximum concentration achievable [1]: 86 % Cmax
Concentration Thymidine (released) (irradiation time 1 min): 0.0327 mM
Relative Quantity Thymidine (released) (irradiation time 1 min): 16.3%
Concentration CNPEOC-T (irradiation time 1 min): 0.1489 mM
Concentration Thymidine (released) (irradiation time 2 min): 0.0858 mM
Relative Quantity Thymidine (released) (irradiation time 2 min): 42.9%
Concentration CNPEOC-T (irradiation time 2 min): 0.0826 mM
Concentration Thymidine (released) (irradiation time 3 min): 0.0888 mM
Relative Quantity Thymidine (released) (irradiation time 3 min): 44.4%
Concentration CNPEOC-T (irradiation time 3 min): 0.0819 mM
Concentration Thymidine (released) (irradiation time 5 min): 0.1278 mM
Relative Quantity Thymidine (released) (irradiation time 5 min): 63.9%
Concentration CNPEOC-T (irradiation time 5 min): 0.0281 mM
Concentration Thymidine (released) (irradiation time 15 min): 0.1673 mM
Relative Quantity Thymidine (released) (irradiation time 15 min): 83.7%
Concentration CNPEOC-T (irradiation time 15 min): 0.0088 mM
Concentration Thymidine (released) (irradiation time 30 min): 0.1693 mM
Relative Quantity Thymidine (released) (irradiation time 30 min): 84.6%
Concentration CNPEOC-T (irradiation time 30 min): 0 mM
Concentration Thymidine (released) (irradiation time 60 min): 0.1711 mM
Relative Quantity Thymidine (released) (irradiation time 60 min): 85.5%
Concentration CNPEOC-T (irradiation time 60 min): 0 mM
Concentration Thymidine (released) (irradiation time 120 min): 0.1577 mM
Relative Quantity Thymidine (released) (irradiation time 120 min): 78.9%
Concentration CNPEOC-T (irradiation time 120 min): 0 mM
t0.5 (half-life of photolytic deprotection) (meoh/h2o 1:1, 200 µM): 1.71 min
Relative Quantity CNPEOC-T (meoh/h2o 1:1, 1 min): 74.5%
Relative Quantity CNPEOC-T (meoh/h2o 1:1, 2 min): 41.3%
Relative Quantity CNPEOC-T (meoh/h2o 1:1, 0.05 h): 40.9%
Relative Quantity CNPEOC-T (meoh/h2o 1:1, 5 min): 14.0%
Relative Quantity CNPEOC-T (meoh/h2o 1:1, 0.25 h): 4.4%
Relative Quantity CNPEOC-T (meoh/h2o 1:1, 0.5 h): 0%
Relative Quantity CNPEOC-T (meoh/h2o 1:1, 1 h): 0%
Relative Quantity CNPEOC-T (meoh/h2o 1:1, 2 h): 0%

Cc1cn([C@H]2C[C@H](O)[C@@H](COC(=O)OCCc3c(Cl)cc(Cl)cc3[N+](=O)[O-])O2)c(=O)[nH]c1=O [Compound 8, 5'-O-(2-(2,4-dichloro-6-nitrophenyl)ethoxycarbonyl)thymidine]
Yield of deprotected nucleoside, in relation to maximum concentration achievable [1]: 77 % Cmax
t0.5 (half-life of photolytic deprotection) (meoh/h2o 1:1, 200 µM): 1.68 min

Cc1cn([C@H]2C[C@H](O)[C@@H](COC(=O)OCCc3ccc(Cl)cc3[N+](=O)[O-])O2)c(=O)[nH]c1=O [Compound 6, 5'-O-(2-(4-chloro-2-nitrophenyl)ethoxycarbonyl)thymidine]
Yield of deprotected nucleoside, in relation to maximum concentration achievable [1]: 70 % Cmax
t0.5 (half-life of photolytic deprotection) (meoh/h2o 1:1, 200 µM): 2.3 min
